Several values for one entry are separate records, joined by “and”; a condition that tells them apart may be missing. Equal entries are not always repeated. Where two headings read alike, the source gives them in different places.
Experiments:
Experiment in all cases: nanoBRET off-target validation
Type in all cases: cell-based
[1] = target: T1, CDKL1 (Homo sapiens, UniProt Q00532)
T1 construct: host or cells: HEK293T (ATCC CRL-3216)
Description: (§1) The assay was performed as described previously ([61]). In brief, full-length kinases as listed in table S6 were obtained as plasmids cloned in frame with terminal NanoLuc-fusion (gift from Promega; table S6). […] Serially diluted inhibitor and corresponding tracer as listed in table S6 at the Tracer KD concentration taken from TracerDB (tracerdb.org) ([62]) were pipetted into white 384-well plates (Greiner, 781207) using an ECHO acoustic dispenser (Labcyte). The corresponding protein-transfected cells were added and reseeded at a density of 2 × 10^5 cells/ml after trypsinization and resuspending in Opti-MEM without phenol red (Life Technologies). The system was allowed to equilibrate for 3 hours at 37°C/5% CO2 before bioluminescence resonance energy transfer (BRET) measurements. To measure BRET, NanoBRET NanoGlo Substrate + extracellular NanoLuc Inhibitor (Promega, N2540) was added as per the manufacturer’s protocol, and filtered luminescence was measured on a PHERAstar plate reader (BMG Labtech) equipped with a luminescence filter pair [450-nm BP filter (donor) and 610-nm LP filter (acceptor)]. […] (For step-by-step protocol, see www.eubopen.org/sites/www.eubopen.org/files/attachments/2021/NanoBRET-IC50_v1_0.pdf.)

[2] = target: T2, DDR2 (Homo sapiens, UniProt Q16832)
T2 construct: host or cells: HEK293T (ATCC CRL-3216)
T2 sequence (Q16832 22-855): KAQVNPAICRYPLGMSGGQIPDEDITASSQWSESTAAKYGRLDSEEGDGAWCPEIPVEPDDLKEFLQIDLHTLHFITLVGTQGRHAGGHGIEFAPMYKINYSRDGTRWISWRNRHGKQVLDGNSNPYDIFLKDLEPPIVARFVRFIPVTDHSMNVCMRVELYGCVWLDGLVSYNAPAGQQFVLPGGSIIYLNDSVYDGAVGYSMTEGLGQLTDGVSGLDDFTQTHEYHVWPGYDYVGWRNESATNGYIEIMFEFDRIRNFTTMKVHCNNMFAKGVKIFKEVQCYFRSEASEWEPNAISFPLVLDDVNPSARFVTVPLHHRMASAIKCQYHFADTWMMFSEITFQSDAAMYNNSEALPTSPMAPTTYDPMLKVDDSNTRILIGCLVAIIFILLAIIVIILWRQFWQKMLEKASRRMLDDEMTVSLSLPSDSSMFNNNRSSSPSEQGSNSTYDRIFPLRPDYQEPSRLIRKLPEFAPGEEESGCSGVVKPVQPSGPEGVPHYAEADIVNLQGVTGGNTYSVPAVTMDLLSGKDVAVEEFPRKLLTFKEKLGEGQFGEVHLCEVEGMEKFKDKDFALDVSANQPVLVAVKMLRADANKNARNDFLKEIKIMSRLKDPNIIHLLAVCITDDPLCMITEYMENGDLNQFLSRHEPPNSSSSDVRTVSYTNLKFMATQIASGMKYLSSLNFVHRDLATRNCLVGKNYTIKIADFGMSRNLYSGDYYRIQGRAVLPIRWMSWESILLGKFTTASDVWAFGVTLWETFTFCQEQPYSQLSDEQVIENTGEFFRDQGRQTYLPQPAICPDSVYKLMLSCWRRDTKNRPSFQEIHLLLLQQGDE
Description: as §1

[3] = target: T3, MAPK14 (Homo sapiens, UniProt Q16539); conditions: MAPK14; inhibitor 8 nM; two replicates; listed as RN341, 0.008 µM
T3 construct: host or cells: HEK293T (ATCC CRL-3216)
T3 sequence (Q16539 whole entry): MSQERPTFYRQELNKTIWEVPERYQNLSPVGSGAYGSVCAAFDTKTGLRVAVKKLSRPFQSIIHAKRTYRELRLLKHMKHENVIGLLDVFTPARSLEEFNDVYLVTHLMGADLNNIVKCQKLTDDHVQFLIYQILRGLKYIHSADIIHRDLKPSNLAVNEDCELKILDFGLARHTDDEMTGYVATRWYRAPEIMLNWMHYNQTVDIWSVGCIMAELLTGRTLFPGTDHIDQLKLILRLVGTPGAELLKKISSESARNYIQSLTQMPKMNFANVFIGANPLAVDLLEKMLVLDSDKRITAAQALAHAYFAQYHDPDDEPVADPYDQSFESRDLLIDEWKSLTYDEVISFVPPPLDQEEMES
Description: as §1

T1 sequence (Q00532 whole entry): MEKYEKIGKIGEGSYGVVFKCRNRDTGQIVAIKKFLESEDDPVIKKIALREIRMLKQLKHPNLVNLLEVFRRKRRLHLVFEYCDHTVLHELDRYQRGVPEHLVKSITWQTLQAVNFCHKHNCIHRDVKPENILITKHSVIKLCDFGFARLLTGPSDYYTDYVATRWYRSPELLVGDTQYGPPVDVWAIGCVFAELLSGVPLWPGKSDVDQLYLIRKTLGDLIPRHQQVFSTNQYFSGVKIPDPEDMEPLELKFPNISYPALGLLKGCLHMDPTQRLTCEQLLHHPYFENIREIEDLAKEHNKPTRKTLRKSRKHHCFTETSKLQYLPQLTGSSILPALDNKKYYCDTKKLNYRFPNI

Question: `CCSc1nc(NC)c2c(-c3cccc(NC(=O)Nc4cc(C(C)(C)C)nn4-c4ccc(C)cc4)c3)c[nH]c2n1` [Compound 32] was tested. Which EC50 [1] did it give?
Answer: 17 µM

Question: And the remaining activity at 0.008 µM ([1]; CDKL1, inhibitor 8 nM, two replicates, read-out: nanoBRET response normalized to 0% (no tracer) and 100% (no inhibitor) control)?
Answer: 102% and 110%

Question: And the “nanoBRET response normalized to 0% (no tracer) and 100% (no inhibitor) control” value ([1]; CDKL1, inhibitor 16 nM, two replicates, listed as RN341, 0.016 µM)?
Answer: 102.251%

Question: What about the remaining activity at 0.016 µM ([1]; CDKL1, inhibitor 16 nM, two replicates, read-out: nanoBRET response normalized to 0% (no tracer) and 100% (no inhibitor) control) of the same molecule?
Answer: 96.8%

Question: And the remaining activity at 0.05 µM ([1]; CDKL1, inhibitor 50 nM, two replicates, read-out: nanoBRET response normalized to 0% (no tracer) and 100% (no inhibitor) control)?
Answer: 106% and 102%

Question: What about the “nanoBRET response normalized to 0% (no tracer) and 100% (no inhibitor) control” value ([1]; CDKL1, inhibitor 250 nM, two replicates, listed as RN341, […]) of the same molecule?
Answer: 106.285%

Question: And the remaining activity at […] ([1]; CDKL1, inhibitor 250 nM, two replicates, read-out: nanoBRET response normalized to 0% (no tracer) and 100% (no inhibitor) control)?
Answer: 116%

Question: And the “nanoBRET response normalized to 0% (no tracer) and 100% (no inhibitor) control” value ([1]; CDKL1, inhibitor 500 nM, two replicates, listed as RN341, 0.5 µM)?
Answer: 96.8094%

Question: And the remaining activity at 0.5 µM ([1]; CDKL1, inhibitor 500 nM, two replicates, read-out: nanoBRET response normalized to 0% (no tracer) and 100% (no inhibitor) control)?
Answer: 106%

Question: What about the “nanoBRET response normalized to 0% (no tracer) and 100% (no inhibitor) control” value ([1]; CDKL1, inhibitor 2500 nM, two replicates, listed as RN341, […]) of the same molecule?
Answer: 88.1398%

Question: And the remaining activity at […] ([1]; CDKL1, inhibitor 2500 nM, two replicates, read-out: nanoBRET response normalized to 0% (no tracer) and 100% (no inhibitor) control)?
Answer: 91%

Question: And the “nanoBRET response normalized to 0% (no tracer) and 100% (no inhibitor) control” value ([1]; CDKL1, inhibitor 5000 nM, two replicates, listed as RN341, 5 µM)?
Answer: 77.8643%

Question: And the remaining activity at 5 µM ([1]; CDKL1, inhibitor 5000 nM, two replicates, read-out: nanoBRET response normalized to 0% (no tracer) and 100% (no inhibitor) control)?
Answer: 74.8%

Question: And the “nanoBRET response normalized to 0% (no tracer) and 100% (no inhibitor) control” value ([1]; CDKL1, inhibitor 25000 nM, two replicates, listed as RN341, 25 µM)?
Answer: 39.2489%

Question: And the remaining activity at 25 µM ([1]; CDKL1, inhibitor 25000 nM, two replicates, read-out: nanoBRET response normalized to 0% (no tracer) and 100% (no inhibitor) control)?
Answer: 46.9%

Question: And the EC50 [2]?
Answer: > 20 µM

Question: What about the remaining tracer BRET signal at 0.008 µM ([2]; DDR2, inhibitor 8 nM, two replicates, read-out: nanoBRET response normalized to 0% (no tracer) and 100% (no inhibitor) control) of the same molecule?
Answer: 102% and 95.3%

Question: What about the “nanoBRET response normalized to 0% (no tracer) and 100% (no inhibitor) control” value ([2]; DDR2, inhibitor 16 nM, two replicates, listed as RN341, 0.016 µM) of the same molecule?
Answer: 102.202%

Question: And the remaining tracer BRET signal at 0.016 µM ([2]; DDR2, inhibitor 16 nM, two replicates, read-out: nanoBRET response normalized to 0% (no tracer) and 100% (no inhibitor) control)?
Answer: 105%

Question: And the “nanoBRET response normalized to 0% (no tracer) and 100% (no inhibitor) control” value ([2]; DDR2, inhibitor 50 nM, two replicates, listed as RN341, 0.05 µM)?
Answer: 98.4821%

Question: What about the remaining tracer BRET signal at 0.05 µM ([2]; DDR2, inhibitor 50 nM, two replicates, read-out: nanoBRET response normalized to 0% (no tracer) and 100% (no inhibitor) control) of the same molecule?
Answer: 114%

Question: What about the “nanoBRET response normalized to 0% (no tracer) and 100% (no inhibitor) control” value ([2]; DDR2, inhibitor 250 nM, two replicates, listed as RN341, […]) of the same molecule?
Answer: 104.362%

Question: And the remaining tracer BRET signal at […] ([2]; DDR2, inhibitor 250 nM, two replicates, read-out: nanoBRET response normalized to 0% (no tracer) and 100% (no inhibitor) control)?
Answer: 123%

Question: What about the “nanoBRET response normalized to 0% (no tracer) and 100% (no inhibitor) control” value ([2]; DDR2, inhibitor 500 nM, two replicates, listed as RN341, 0.5 µM) of the same molecule?
Answer: 117.148%

Question: What about the remaining tracer BRET signal at 0.5 µM ([2]; DDR2, inhibitor 500 nM, two replicates, read-out: nanoBRET response normalized to 0% (no tracer) and 100% (no inhibitor) control) of the same molecule?
Answer: 129%

Question: What about the “nanoBRET response normalized to 0% (no tracer) and 100% (no inhibitor) control” value ([2]; DDR2, inhibitor 2500 nM, two replicates, listed as RN341, […]) of the same molecule?
Answer: 86.9292%

Question: And the remaining tracer BRET signal at […] ([2]; DDR2, inhibitor 2500 nM, two replicates, read-out: nanoBRET response normalized to 0% (no tracer) and 100% (no inhibitor) control)?
Answer: 103%

Question: What about the “nanoBRET response normalized to 0% (no tracer) and 100% (no inhibitor) control” value ([2]; DDR2, inhibitor 5000 nM, two replicates, listed as RN341, 5 µM) of the same molecule?
Answer: 105.865%

Question: What about the remaining tracer BRET signal at 5 µM ([2]; DDR2, inhibitor 5000 nM, two replicates, read-out: nanoBRET response normalized to 0% (no tracer) and 100% (no inhibitor) control) of the same molecule?
Answer: 89.9%

Question: And the “nanoBRET response normalized to 0% (no tracer) and 100% (no inhibitor) control” value ([2]; DDR2, inhibitor 25000 nM, two replicates, listed as RN341, 25 µM)?
Answer: 54.8632%

Question: And the remaining tracer BRET signal at 25 µM ([2]; DDR2, inhibitor 25000 nM, two replicates, read-out: nanoBRET response normalized to 0% (no tracer) and 100% (no inhibitor) control)?
Answer: 55.4%

Question: What about the “nanoBRET response normalized to 0% (no tracer) and 100% (no inhibitor) control” value [3] of the same molecule?
Answer: 98.3554%

Reference: publication PMC12136037, “Type II kinase inhibitors that target Parkinson’s disease–associated LRRK2” (Science Advances, 2025)
